Laboratory results: patent EP0170926B1, “Eburnanecarboxylic acid derivatives having an amino group in position 9 or 11, the amino group eventually being substituted, process for their preparation, and medicaments containing these compounds” (priority 1984, dated 1986)
In brackets after ≈: the same amount, converted by molar mass. Structures can show the parent of a compound that is named as a salt. Where two headings read alike, the source gives them in different places.

How the values were obtained:
[1] = system: isolierten Meerschweinchenileum; assay: Spasmolytic activity: inhibition of barium chloride-induced contraction of isolated guinea pig ileum; set-up: species or system Meerschweinchen; conditions: Cavia porcellus
Text: Die spasmolytische Aktivität der Verbindungen wurde am isolierten Meerschweinchendarm auf klassische Weise bestimmt (Magnus, R., Pflügers Arch., 102; 123/1904/). Als Referenzsubstanz wurden das bekannte Spasmolytikum Papaverin, ferner (+)-Apovincaminsäureäthylester verwendet. Die Ergebnisse sind in der Tabelle II zusammengefaßt.

[2] = system: nicht narkotisierter Mäuse; assay: Antihypoxic effect: normobaric hypoxia in non-anaesthetised mice; type: in vivo; conditions: for Überlebensdauer (min): 50 mg/kg intraperitoneal 30 min before test, 96 % nitrogen, 4 % oxygen, mean ± spread; for Überlebensdauer (%) Verlängerung: prolongation versus control
Text: Die antihypoxische Wirkung wurde an nicht narkotisierten Mäusen in normobarer Hypoxie bestimmt. Fünf männliche Mäuse wurden in einen Glaszylinder von 3 Liter Volumen gesetzt, und in den Zylinder wurde ein aus 96 % Stickstoff und 4 % Sauerstoff bestehendes Gasgemisch eingeleitet. Gemessen wurde die Zeit zwischen dem Einbringen der Tiere in den Zylinder und ihrem Verenden. Diejenigen Tiere, die die unbehandelte Kontrolle um mehr als die doppelte Zeitspanne überlebten, können als erfolgreich behandelt gelten. Die zu untersuchenden Substanzen wurden je 10 Tieren in einer Dosis von 50 mg/kg Intraperitoneal 30 Minuten vor Versuchsbeginn verabreicht.

[3] = system: Tiere; assay: Antihypoxic effect: asphyxic anoxia; type: in vivo; conditions: po, 1 h; p.o., one hour before test; protected = survival 30 % longer than control; read-out: ED50 Asphyxische Anoxie
Experimental: Die antihypoxische Wirkung wurde ferner hoch an asphyxischer Anoxie (Caillard C. et al.: Life Sci. 16, 1607 /1975/) und an hypobarer Hypoxie (Baumel J. et al: Proc. Soc. Biol. N.Y. 132, 629 /1969/) gemessen. Dabei wurden die Tiere 16 Stunden lang ausgehungert, dann p.o. behandelt und eine Stunde später in gut schließende Glasgefäße von 100 ml Volumen gesetzt. Als Überiebenszeit wurde die Zeit vom Verschließen des Gefäßes bis zur letzten Atembewegung registriert. Als erfolgreich behandelt können diejenigen Tiere gelten, die eine um 30 % längere Zeit an Leben blieben als der Durchschnitt der Kontrollgruppe.

[4] = system: Tiere; assay: Antihypoxic effect: hypobaric hypoxia; type: in vivo; conditions: po, 1 h; p.o., one hour before test; 221 mbar; protected = survival 100 % longer than control; probit analysis; read-out: ED50 Hypobare Hypoxie
Text: Die Wirkung auf die hypobare Hypoxie wurde an 16 Stunden lang ausgehungerten Tieren untersucht, die eine Stunde vor Versuchsbeginn p.o. mit den Verbindungen behandelt wurden. Die Tiere wurden In einen Vakuumexsikkator gesetzt, und der Druck wurde innerhalb von 20 Sekunden auf 221 mbar [170 Torr] gesenkt. Von diesem Zeitpunkt an wurde als Überlebensdauer die Zeit bis zur letzten Atembewegung gemessen. Als erfolgreich behandelt wurden diejenigen Tiere betrachtet, deren Überlebensdauer um 100 % länger war als die durchschnittliche Übedebensdauer der Kontrolle. Aus dem prozentualen Anteil der geschützten Tiere wurden mittels Probit-Analyse die ED50-Werte berechnet.

[5] = system: Kreislauf narkotisierter Hunde; assay: Vasodilating effect: blood flow in anaesthetised dogs (electromagnetic flow meter); type: in vivo; conditions: Canis lupus familiaris, 1 mg/kg intravenous, six dogs
Experimental: Die gefäßerweiternde Wirkung wurde an mit "Chloralose-Pentobarbital"-Gemisch narkotisierten Hunden untersucht. Die Durchblutung der Extremitäten wurde an der Arteria femoralis gemessen, über die Durchblutung des Gehirns ergaben Messungen an der Arteria carotis interna Aufschluß. Zu den Messungen wurden elektromagnetische Strömungsmesser verwendet. Die zu untersuchenden Substanzen wurden in einer Dosis von 1 mg/kg Körpergewicht sechs Hunden appliziert, und die in den gemessenen Parametern eintretenden Veränderungen wurden in Prozent umgerechnet. Als Referenzsubstanz diente der in der Medizin als gefäßerweiternde Substanz allgemein angewendete (+)-Apovincamlnsäureäthylester. Die Ergebnisse sind In der Tabelle I zusammengefaßt.

[6] = system: Mäusen; assay: Anticonvulsive effect: maximal electroshock in mice; type: in vivo; conditions: Mus musculus, po; 20 mA, 0,2 s, corneal electrode; read-out: ED50 max. Elektroschock
Text: Der Schock wurde an 22 - 24 g schweren Tieren durch eine corneale Elektrode ausgelöst (20 mA, 0,2 s, HSE-Schockgerät Typ 207). Als geschützt wurden diejenigen Tiere betrachtet, bei denen durch die Behandlung die tonische Extension der hinteren Gliedmaßen ausblieb.

[7] = system: Mäusen; assay: Anticonvulsive effect: metrazole (pentylenetetrazole) convulsion in mice; type: in vivo; conditions: Mus musculus, po; 125 mg/kg pentylenetetrazole subcutaneous; read-out: ED50 Metrazolkrampf
Text: Die Tiere erhielten nach der Vorbehandlung subkutan 125 mglkg Pentylentetrazol. Registriert wurde das Ausbleiben des persistierenden clonischen Krampfes und des tonischen Extensorkrampfes.

[8] = in vivo; set-up: species or system Mäuse; conditions: mouse, po
Text: Muskelrelaxierende Wirkung (Traction).

[9] = in vivo; conditions: for TD50: po
Experimental: Messung der Muskelinkoordination (Rotarod) (H. Kwibara et al.: Japan J. Pharmacol. 27, 117 /1977/). Nach vorherigem Training wurden Tiere ausgewählt die im Stande sind, 120 Sekunden lang auf dem horizontalen Stab (Durchmesser 20 mm, Drehzahl 12 min^-1) oben zu bleiben. Als Muskelinkoordination wurde gewertet, wenn die Tiere innerhalb der Limitzeit herabfielen.

[10] = Vasodilating effect, tests without described method; conditions: in vivo
[11] = Antihypoxic effect, investigations without described method; conditions: in vivo
[12] = inhibition of barium chloride-induced contraction, read-out: ED50 (the source's name)
[13] = blood flow of Arteria femoralis (extremities), read-out: A. femoralis (Veränderungen in Prozent)
[14] = blood flow of Arteria carotis interna (brain), read-out: A. carotis (Veränderungen in Prozent)

Work on `COc1ccc(Cc2nccc3cc(OC)c(OC)cc23)cc1OC` [Papaverin, reference compound] yielded an IC50 ([1]; read-out: ED50) of 5.4 µg/mL (≈ 15.9 µM).
With `CCOC(=O)C1=C[C@]2(CC)CCCN3CCc4c(n1c1ccccc41)[C@@H]32` [Apovincaminsäureäthylester, reference compound] the IC50 [1, 12] was 2 µg/mL (≈ 5.71 µM), the “Überlebensdauer (min)” value [2] was 6,4 ± 1,58 min and the “Überlebensdauer (%) Verlängerung” value ([2]; 50 mg/kg intraperitoneal) was 7%. For the same molecule, the ED50 [3] was over 50 mg/kg and the ED50 [4] was over 50 mg/kg.
For `CCOC(=O)C1=C[C@]2(CC)CCCN3CCc4c(n1c1cc(NC(=O)c5ccccc5)ccc41)[C@@H]32` [Beispiel 38, 11-(Benzoylamino)-apovincaminsäureäthylesterhydrochlorid], the change in vivo at 1 mg/kg [5, 13] was 0%, the ED50 [6] was 16.7 mg/kg and the ED50 [7] was 9.7 mg/kg. It also gave a TD50 [8] of over 180 mg/kg and a TD50 [9] of over 180 mg/kg.
In the case of `CCOC(=O)C1=C[C@]2(CC)CCCN3CCc4c(n1c1cccc(N)c41)[C@@H]32` [Beispiel 6, 9-(Amino)-apovincaminsäureäthylesterhydrochlorid], the “Überlebensdauer (min)” value [2] is reported as 7,3 ± 2,31 min, the “Schutz (%)” value ([2]; 50 mg/kg intraperitoneal, animals surviving more than twice the control time) is reported as 10% and the “Überlebensdauer (%) Verlängerung” value ([2]; 50 mg/kg intraperitoneal) is reported as 22%.
For `CCOC(=O)C1=C[C@]2(CC)CCCN3CCc4c(n1c1cccc(NS(C)(=O)=O)c41)[C@@H]32` [Beispiel 7, 9-(Methylsulfonylamino)-apovincaminsäureäthylesterhydrochlorid], the change in vivo at 1 mg/kg [5, 14] was 0%.
Work on `CCC1(c2ccccc2)NC(=O)N(C)C1=O` (centres unmarked) [Mephenitoin, reference compound] yielded an ED50 [3] of over 80 mg/kg, an ED50 [4] of over 80 mg/kg and an ED50 [6] of 26.3 mg/kg. It also gave an ED50 [7] of 24.5 mg/kg, a TD50 [8] of 154 mg/kg and a selectivity ratio ([9]; mouse) of 3 to 6. The TD50 [9] was 78.6 mg/kg.
Work on `CCOC(=O)C1=C[C@]2(CC)CCCN3CCc4c(n1c1cc(NC(=O)c5cccs5)ccc41)[C@@H]32` [Beispiel 37, 11-(Thien-2'-ylcarbonylamino)-apovincaminsäureäthylesterhydrochlorid] yielded a change in vivo at 1 mg/kg [5, 13] of 0%.
With `CC[C@@]12C=C(C(=O)OC)n3c4c(c5ccc(NC(=O)c6ccccc6)cc53)CCN(CCC1)[C@H]42` [Beispiel 28, 11-(Benzoylamino)-apovincamin] the IC50 [1, 12] was 2.5 µg/mL (≈ 5.49 µM), the ED50 [3] was 25 mg/kg and the ED50 [4] was over 50 mg/kg. The ED50 [6] was 16 mg/kg and the ED50 [7] was 15.9 mg/kg.
With `CC[C@@]12C=C(C(=O)OC)n3c4c(c5ccc(NC(=O)c6ccccc6F)cc53)CCN(CCC1)[C@H]42` [Beispiel 26, 11-[2'-(Fluor)-benzoylamino]-apovincamin] the IC50 [1, 12] was 4 µg/mL (≈ 8.45 µM).
For `CCC12CCCN3CCc4c(n(c5cccc([N+](=O)[O-])c45)C(O)(C(=O)OC)C1)C32` (centres unmarked) [9-Nitro-vincamin], the “gefäßerweiternde Wirkung” value [10] was “keine gefäßerweiternde Wirkung”.
With `CC[C@@]12C=C(C(=O)OCC(C)C)n3c4c(c5ccc(NC(C)=O)cc53)CCN(CCC1)[C@H]42` [Beispiel 39, 11-(Acetamido)-apovincaminsäureisobutylesterhydrochlorid] the change in vivo at 1 mg/kg [5, 13] was 0%.
`CC[C@@]12C=C(C(=O)OC)n3c4c(c5ccc(NC(=O)c6ccc([N+](=O)[O-])cc6)cc53)CCN(CCC1)[C@H]42` [Beispiel 9, 11-[4'-(Nitro)-benzoylamino]-apovincamin] showed an ED50 [3] of 40.9 mg/kg and an ED50 [4] of 42.1 mg/kg.
`CC[C@@]12C=C(C(=O)OC)n3c4c(c5ccc(NC(C)=O)cc53)CCN(CCC1)[C@H]42` [Beispiel 21, 11-(Acetamido)-apovincamin] showed a change in vivo at 1 mg/kg [5, 13] of 0%.
For `CC[C@]12CCCN3CCc4c(n(c5ccccc45)[C@@](O)(C(=O)OC)C1)[C@@H]32` [Vincamin], the “Überlebensdauer (min)” value [2] was 6,1 ± 1,30 min and the “Überlebensdauer (%) Verlängerung” value ([2]; 50 mg/kg intraperitoneal) was 2%.
With `CCOC(=O)C1=C[C@]2(CC)CCCN3CCc4c(n1c1cccc(NC(C)=O)c41)[C@@H]32` [Beispiel 40, 9-(Acetamido)-apovincaminsäureäthylesterhydrochlorid] the change in vivo at 1 mg/kg [5, 14] was 0%.
With `CCC12C=C(C(=O)OC)n3c4c(c5c([N+](=O)[O-])cccc53)CCN(CCC1)C42` (centres unmarked) [9-Nitro-apovincamin] the “antihypoxische Wirkung” value [11] was “keine antihypoxische Wirkung”.
